Measurements: PubChem BioAssay AID328 (DTP/NCI, 2004)
“And” between values parts separate entries of the source, which are not always exact repeats. Identical values can stand only once. Inconclusive results and toxic doses are left out. Rule for the calls: active = survival T/C of 150% or more; inactive = T/C below 125% in these data.

Tested on: BDF1 mice, P388 leukemia ip, median survival T/C
Assay: NCI In Vivo Anticancer Drug Screen. Data for tumor model P388 Leukemia (intraperitoneal) in B6D2F1 (BDF1) mice
Settings: endpoint: median survival time, higher = longer survival
Outline: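 Each value expresses how treatment altered survival: treated-mouse outcome over vehicle-mouse outcome, both groups bearing the transplanted tumour.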

[1] = dose: 12.5 mg/kg/injection, schedule: Q01DX009 (ip), vehicle: saline with Tween-80
[2] = dose: 25.0 mg/kg/injection, schedule: Q01DX009 (ip), vehicle: saline with Tween-80
[3] = dose: 50.0 mg/kg/injection, schedule: Q01DX009 (ip), vehicle: saline with Tween-80
[4] = dose: 6.25 mg/kg/injection, schedule: Q01DX009 (ip), vehicle: saline with Tween-80
[5] = dose: 100.0 mg/kg/injection, schedule: Q01DX009 (ip), vehicle: saline with Tween-80
[6] = dose: 200.0 mg/kg/injection, schedule: Q01DX009 (ip), vehicle: saline with Tween-80
[7] = dose: 25.0 mg/kg/injection, schedule: Q01DX009 (ip), vehicle: Klucel (hydroxypropylcellulose) (HPC)
[8] = dose: 50.0 mg/kg/injection, schedule: Q01DX009 (ip), vehicle: Klucel (hydroxypropylcellulose) (HPC)
[9] = dose: 50.0 mg/kg/injection, schedule: Q01DX009 (ip), vehicle: saline
[10] = dose: 100.0 mg/kg/injection, schedule: Q01DX009 (ip), vehicle: Klucel (hydroxypropylcellulose) (HPC)
[11] = dose: 100.0 mg/kg/injection, schedule: Q01DX009 (ip), vehicle: saline
[12] = dose: 100.0 mg/kg/injection, schedule: Q04DX003 (ip), vehicle: saline
[13] = dose: 200.0 mg/kg/injection, schedule: Q01DX009 (ip), vehicle: Klucel (hydroxypropylcellulose) (HPC)
[14] = dose: 200.0 mg/kg/injection, schedule: Q04DX003 (ip), vehicle: saline
[15] = dose: 12.5 mg/kg/injection, schedule: Q04DX003 (ip), vehicle: saline with Tween-80
[16] = dose: 25.0 mg/kg/injection, schedule: Q04DX003 (ip), vehicle: saline with Tween-80
[17] = dose: 50.0 mg/kg/injection, schedule: Q04DX003 (ip), vehicle: saline with Tween-80
[18] = dose: 100.0 mg/kg/injection, schedule: Q04DX003 (ip), vehicle: Klucel (hydroxypropylcellulose) (HPC)
[19] = dose: 200.0 mg/kg/injection, schedule: Q04DX003 (ip), vehicle: Klucel (hydroxypropylcellulose) (HPC)
[20] = dose: 6.0 mg/kg/injection, schedule: Q01DX009 (ip), vehicle: Klucel (hydroxypropylcellulose) (HPC)

Measured: T/C

CNC(=O)N/N=C/c1ccccc1
inactive: dose: 75.0 mg/kg/injection, schedule: Q01DX009 (ip), vehicle: saline with Tween-80 101 % of control | dose: 150.0 mg/kg/injection, schedule: Q01DX009 (ip), vehicle: saline with Tween-80 97 % of control | dose: 300.0 mg/kg/injection, schedule: Q01DX009 (ip), vehicle: saline with Tween-80 92 % of control

CN(C)c1ccc(N(C)C)c(C(O)(c2ccccc2)c2ccccc2)c1
inactive: [1] 95 % of control | [2] 93 % of control | [3] 95 % of control

C=C1C(=O)[C@]23C[C@H]1CC[C@H]2[C@@]12CO[C@@H](O)[C@@H]1C(C)(C)[C@@H](O)C[C@@H]2OC3=O
inactive: dose: 3.13 mg/kg/injection, schedule: Q01DX009 (ip), vehicle: saline with Tween-80 112 % of control | [4] 118 % of control | [2] 117 % of control | [3] 119 % of control and 121 % of control | [5] 112 % of control | [6] 120 % of control

COc1cc(/C=C(/C)[N+](=O)[O-])ccc1O
inactive: dose: 12.5 mg/kg/injection, schedule: Q01DX009 (ip), vehicle: carboxymethylcellulose (CMC) 118 % of control | dose: 18.75 mg/kg/injection, schedule: Q01DX009 (ip), vehicle: Klucel (hydroxypropylcellulose) (HPC) 121 % of control | [7] 103 % of control and 112 % of control | [8] 116 % of control | [9] 122 % of control | dose: 50.0 mg/kg/injection, schedule: Q04DX003 (ip), vehicle: saline 109 % of control | [10] 114 % of control | [11] 92 % of control | [12] 113 % of control | [13] 114 % of control | dose: 200.0 mg/kg/injection, schedule: Q01DX009 (ip), vehicle: saline 122 % of control | [14] 118 % of control

CC(=O)OCC(Br)C(Br)COC(C)=O (stereo not drawn)
inactive: [5] 109 % of control | [6] 109 % of control | dose: 400.0 mg/kg/injection, schedule: Q01DX009 (ip), vehicle: saline with Tween-80 109 % of control

COc1cc(C2NC(=O)C(C#N)=C(Nc3cccc(C)c3)S2)ccc1O (stereo not drawn)
inactive: [3] 101 % of control | [5] 114 % of control | [6] 119 % of control

CN(C)N=C(Cc1ccccc1)Cc1ccccc1
inactive: [15] 108 % of control | [16] 108 % of control | [17] 104 % of control

OCC[P+](c1ccccc1)(c1ccccc1)c1ccccc1
inactive: dose: 25.0 mg/kg/injection, schedule: Q01DX001 (ip), vehicle: saline 108 % of control | dose: 50.0 mg/kg/injection, schedule: Q01DX001 (ip), vehicle: saline 98 % of control

CC(=O)Nc1ccc(OC(=O)Nc2ccc(C)c(NC(=O)Oc3ccc(NC(C)=O)cc3)c2)cc1
inactive: dose: 50.0 mg/kg/injection, schedule: Q01DX005 (ip), vehicle: saline with Tween-80 96 % of control | dose: 100.0 mg/kg/injection, schedule: Q01DX005 (ip), vehicle: saline with Tween-80 102 % of control | dose: 200.0 mg/kg/injection, schedule: Q01DX005 (ip), vehicle: saline with Tween-80 119 % of control

N#CC(C(N)=O)c1ccccc1 (stereo not drawn)
inactive: [16] 102 % of control | [17] 108 % of control | dose: 100.0 mg/kg/injection, schedule: Q04DX003 (ip), vehicle: saline with Tween-80 97 % of control

FC(F)(F)C1=N/C(=C2\N=C(C(F)(F)F)N=C2Cl)C(Cl)=N1
inactive: dose: 0.39 mg/kg/injection, schedule: Q04DX003 (ip), vehicle: saline with Tween-80 100 % of control | dose: 0.78 mg/kg/injection, schedule: Q04DX003 (ip), vehicle: saline with Tween-80 114 % of control | dose: 1.56 mg/kg/injection, schedule: Q01DX009 (ip), vehicle: saline with Tween-80 104 % of control | dose: 1.56 mg/kg/injection, schedule: Q04DX003 (ip), vehicle: saline with Tween-80 100 % of control and 110 % of control | dose: 3.12 mg/kg/injection, schedule: Q01DX009 (ip), vehicle: saline with Tween-80 116 % of control | dose: 3.12 mg/kg/injection, schedule: Q04DX003 (ip), vehicle: saline with Tween-80 96 % of control and 100 % of control | [4] 116 % of control | dose: 6.25 mg/kg/injection, schedule: Q04DX003 (ip), vehicle: saline with Tween-80 91 % of control and 100 % of control | [1] 111 % of control | [15] 88 % of control | [2] 94 % of control | [16] 88 % of control

c1ccc2c(c1)[nH]c1c2c[n+]2c3c(cccc13)CCC2
inactive: dose: 3.13 mg/kg/injection, schedule: Q01DX009 (ip), vehicle: saline 119 % of control | dose: 3.66 mg/kg/injection, schedule: Q01DX009 (ip), vehicle: saline 110 % of control | dose: 5.49 mg/kg/injection, schedule: Q01DX009 (ip), vehicle: saline 105 % of control | dose: 6.25 mg/kg/injection, schedule: Q01DX009 (ip), vehicle: saline 104 % of control

CCN1C(=O)CC(=O)N(CC)C1=S
inactive: [8] 95 % of control | [10] 91 % of control | [18] 96 % of control | [13] 104 % of control | [19] 92 % of control

COc1ccc(CCN2C(=O)CSC2=S)cc1OC
inactive: dose: 100.0 mg/kg/injection, schedule: Q01DX001 (ip), vehicle: Klucel (hydroxypropylcellulose) (HPC) 90 % of control | dose: 200.0 mg/kg/injection, schedule: Q01DX001 (ip), vehicle: Klucel (hydroxypropylcellulose) (HPC) 100 % of control | dose: 400.0 mg/kg/injection, schedule: Q01DX001 (ip), vehicle: Klucel (hydroxypropylcellulose) (HPC) 90 % of control

CCCCCc1ccc2oc(=O)c3ccc(C)cc3c2c1O
inactive: dose: 1.5 mg/kg/injection, schedule: Q01DX009 (ip), vehicle: Klucel (hydroxypropylcellulose) (HPC) 95 % of control | dose: 3.0 mg/kg/injection, schedule: Q01DX009 (ip), vehicle: Klucel (hydroxypropylcellulose) (HPC) 104 % of control | [20] 104 % of control | dose: 6.25 mg/kg/injection, schedule: Q01DX009 (ip), vehicle: Klucel (hydroxypropylcellulose) (HPC) 92 % of control | [18] 100 % of control | [19] 100 % of control | dose: 400.0 mg/kg/injection, schedule: Q04DX003 (ip), vehicle: Klucel (hydroxypropylcellulose) (HPC) 95 % of control

Clc1c(CBr)c(Cl)c(CBr)c(Cl)c1CBr
inactive: dose: 12.5 mg/kg/injection, schedule: Q01DX009 (ip), vehicle: Klucel (hydroxypropylcellulose) (HPC) 113 % of control | [7] 122 % of control

O=C1/C(=C\c2ccccc2)C(Br)c2ccccc21 (stereo not drawn)
inactive: dose: 1.56 mg/kg/injection, schedule: Q01DX009 (ip), vehicle: water 87 % of control | dose: 3.12 mg/kg/injection, schedule: Q01DX009 (ip), vehicle: water 108 % of control | dose: 6.25 mg/kg/injection, schedule: Q01DX009 (ip), vehicle: water 108 % of control | dose: 6.25 mg/kg/injection, schedule: Q04DX003 (ip), vehicle: water 100 % of control | dose: 12.5 mg/kg/injection, schedule: Q01DX009 (ip), vehicle: water 110 % of control | dose: 12.5 mg/kg/injection, schedule: Q04DX003 (ip), vehicle: water 105 % of control | dose: 25.0 mg/kg/injection, schedule: Q01DX009 (ip), vehicle: water 110 % of control | dose: 25.0 mg/kg/injection, schedule: Q04DX003 (ip), vehicle: water 105 % of control | dose: 50.0 mg/kg/injection, schedule: Q04DX003 (ip), vehicle: water 91 % of control

N#CCNC(=O)c1ccccc1
inactive: [20] 88 % of control | dose: 12.0 mg/kg/injection, schedule: Q01DX009 (ip), vehicle: Klucel (hydroxypropylcellulose) (HPC) 88 % of control | [7] 91 % of control | dose: 25.0 mg/kg/injection, schedule: Q04DX003 (ip), vehicle: Klucel (hydroxypropylcellulose) (HPC) 110 % of control | dose: 50.0 mg/kg/injection, schedule: Q04DX003 (ip), vehicle: Klucel (hydroxypropylcellulose) (HPC) 110 % of control | [18] 90 % of control

C[N+](C)(C)c1ncnc2c1ncn2C1CCCO1 (stereo not drawn)
inactive: [9] 100 % of control | [11] 109 % of control | [12] 100 % of control | [14] 100 % of control
